Data: ChEMBL document CHEMBL3046959, “Influence of Absolute Configuration of Indanofan on Herbicidal Activity” (2001)
Activity calls are given as the source filed them. The rule behind the calls is not given here.

System: Echinochloa crus-galli
Experiment: Herbicidal activity against 2.5 leaf stage of Echinochloa crus-galli (barnyard grass) after 2 weeks under greenhouse condition by pot test
Assay type: functional

| Structure (SMILES) | ED90 |
| --- | --- |
| CCC1(CC2(c3cccc(Cl)c3)CO2)C(=O)c2ccccc2C1=O (racemic) | inactive |
| CCC1(CC2(c3cccc(Cl)c3)CO2)C(=O)c2ccccc2C1=O (single isomer, unassigned; (+)) [(RS)-INDANOFAN] | 0.0254 KgAi/ha |
| CCC1(CC2(c3cccc(Cl)c3)CO2)C(=O)c2ccccc2C1=O (single isomer, unassigned; (-)) [(RS)-INDANOFAN] | 0.0524 KgAi/ha |
